Data published in patent publication US20060074244A1, “Pyridinyl substituted (1,2,3,)triazoles as inhibitors of the tgf-beta signalling pathway” (priority 2002, published 2006).
One block for each compound: values may come before it.

Experiments:
[1] = target: T1, recombinant GST-ALK5 (residues 198-503) (Homo sapiens, UniProt P36897); assay: Alk5 fluorescence polarization assay; format: binding; settings: displacement of rhodamine green-labelled ligand, 10 nM ALK5; read-out: ALK5 receptor modulator activity (IC50)
T1 construct: assays using recombinant GST-ALK5 (residues 198-503)
T1 sequence (P36897 198-503): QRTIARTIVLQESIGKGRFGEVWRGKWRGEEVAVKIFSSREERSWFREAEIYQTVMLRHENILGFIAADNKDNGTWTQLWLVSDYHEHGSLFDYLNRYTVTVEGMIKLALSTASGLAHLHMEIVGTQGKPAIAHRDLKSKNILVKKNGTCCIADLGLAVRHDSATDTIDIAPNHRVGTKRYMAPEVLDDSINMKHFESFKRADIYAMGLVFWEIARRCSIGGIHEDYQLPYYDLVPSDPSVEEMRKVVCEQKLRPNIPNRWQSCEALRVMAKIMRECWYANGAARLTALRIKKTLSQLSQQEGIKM
Description: Assay 2 (Alk5 Fluorescence Polarization Assay)
Kinase inhibitor compounds conjugated to fluorophores, can be used as fluorescent ligands to monitor ATP competitive binding of other compounds to a given kinase. The increase in depolarization of plane polarized light, caused by release of the bound ligand into solution, is measured as a polarization/anisotropy value. This protocol details the use of a rhodamine green-labelled ligand for assays using recombinant GST-ALK5 (residues 198-503).
Assay buffer components: 62.5 mM Hepes pH 7.5 (Sigma H-4034), 1 mM DTT (Sigma D-0632), 12.5 mM MgCl2 (Sigma M-9272), 1.25 mM CHAPS (Sigma C-3023). […]
ALK5 was added to assay buffer containing the above components and 1 nM of the rhodamine green-labelled ligand so that the final ALK5 concentration was 10 nM based on active site titration of the enzyme. […] The plates were read immediately on a LJL Acquest fluorescence reader (Molecular Devices, serial number AQ1048) with excitation, emission, and dichroic filters of 485 nm, 530 nm, and 505 nm, respectively. The fluorescence polarization for each well was calculated by the Acquest reader and then imported into curve fitting software for construction of concentration response curves. The normalized response was determined relative to the high controls (1 μl DMSO in column 12, rows A-D) and the low controls (1 μl of control compound in column 12, rows E-H). […]

[2] = test system: TGF-β signalling (PAI-1 promoter-luciferase in HepG2 cells); assay: Cellular transcriptional assay (PAI-1 promoter luciferase reporter)
Description: The assay was performed in HepG2 cells stably transfected with the PAI-1 promoter (known to be a strong TGF-β responsive promoter) linked to a luciferase (firefly) reporter gene. The compounds were selected on their ability to inhibit luciferase activity in cells exposed to TGF-β. In addition, cells were transfected with a second luciferase (Renilla) gene which was not driven by a TGF-13 responsive promoter and was used as a toxicity control.
96 well microplates were seeded, using a multidrop apparatus, with the stably transfected cell line at a concentration of 35000 cells per well in 200 μl of serum-containing medium. These plates were placed in a cell incubator.
18 to 24 hours later (Day 2), cell-incubation procedure was launched. […] Each well contained only one candidate compound and its effect on the PAI-1 promoter was monitored.
Columns 11 and 12 were employed as controls. […] Column 11 was used to determine the ‘reference TGF-β induced firefly luciferase value’ against which values measured in the test wells (to quantify inhibitory activity) were compared. […]
12 to 18 hours later (day 3), the luciferase quantification procedure was launched. […] Following agitation (15 to 30 mins), luciferase activities of the plates were read in a dual-injector luminometer (BMG lumistar). […]

melting point: 110 °C
SMILES: Cc1cccc(-c2nn[nH]c2-c2ccnc(-c3ccc(CN4CCOCC4)cc3)c2)n1 [Example 4, 4-(4-{4-[5-(6-methyl-pyridin-2-yl)-3H-[1,2,3]triazol-4-yl]-pyridin-2-yl}-benzyl)-morpholine]

IC50 [1]: 26 nM
IC50 ([2]; Homo sapiens, HepG2, read-out: TGF-β cellular activity): 413 nM
SMILES: Cc1cccc(-c2[nH]nnc2-c2ccnc(-c3ccc(S(C)(=O)=O)cc3)c2)n1 [Example 1, 2-(4-Methanesulfonylphenyl)-4-(5-(6-methyl)-pyridin-2-yl-3H-[1,2,3]triazol-4-yl)-pyridine]

SMILES: O=C1C=CCC1 [CPO, Cyclopentenone, reference compound]
firefly and renilla luciferase activities (toxicity control) ([2]; 500 μM CPO with TGF-β, relative to TGF-β only): around 50%
